Test results: patent US20090253658A1, “Fat Accumulation Inhibitor” (priority 2006, published 2009)

Legend:
[1] = tested on: visceral fat; assay: Inhibition of visceral fat accumulation (high fat feed animal test, dissection on 8th week); assay type: in vivo
Experimental: Using the sphingomyelin obtained in Example 7, an action of inhibition of visceral fat accumulation was verified. An animal test was carried out using 8 animals per group by a group in which a high fat feed blended with sphingomyelin was fed (sphingomyelin diet group) and a group in which a high fat feed not blended with sphingomyelin was fed (high fat diet group). In the animal test, the high fat feed was provided until the 4th week after rearing, and thereafter the group was divided into 5 groups, and the high fat feed or sphingomyelin-blended high fat feed was provided until the 8th week. By carrying out dissection on the 8th week, the amount of visceral fats (mesenteric, peri-testicular, perirenal, posterior abdominal) was measured.

[2] = tested on: adiponectin concentration in blood; assay: Acceleration of increase and/or inhibition of decrease of adiponectin concentration in blood (high fat feed animal test, ELISA); assay type: in vivo
Experimental: Using the sphingomyelin obtained in Example 7, an action of acceleration of increase and/or inhibition of decrease of an adiponectin concentration in blood was verified. An animal test was carried out using 8 animals per group by a group in which a high fat feed blended with sphingomyelin was fed (sphingomyelin diet group) and a group in which a high fat feed not blended with sphingomyelin was fed (high fat diet group). The high fat diet was prepared using a milk casein as a protein source and a butter oil as a lipid source. In the animal test, a feed was provided until the 4th week after rearing, and thereafter the group was divided into 5 groups, and the high fat feed or sphingomyelin-blended high fat feed was provided until the 8th week. Blood collection was carried out on the 4th week and on the 8th week, and an adiponectin concentration in blood was measured using a Mouse/Rat Adiponectin ELISA Kit (manufactured by Otsuka Pharmaceutical Co., Ltd.).

sphingomyelin [Sphingomyelin (Example 7)]
Amount of visceral fat, Mesenteric ([1]; dissection on the 8th week): 2.19 g | Amount of visceral fat, Perirenal ([1]; dissection on the 8th week): 0.74 g | Amount of visceral fat, peri-testicular ([1]; dissection on the 8th week): 3.22 g | Amount of visceral fat, posterior abdominal ([1]; dissection on the 8th week): 2.11 g | Amount of visceral fat (in words) ([1]; in comparison with the high fat diet group): low values | Adiponectin concentration in blood with the lapse of time (in words) ([2]; 4th to 8th week, decreases in the high fat diet group): increases | Adiponectin concentration in blood ([2]; 4 weeks (before start of sphingomyelin-blended high fat feed)): 10.88 µg/mL | Adiponectin concentration in blood ([2]; 8 weeks (sphingomyelin-blended high fat feed from 4th to 8th week)): 15.65 µg/mL
